The values below come from patent US9611278B2 (Merck Sharp & Dohme Corp., priority 2013, dated 2017).

In assay [1] the target is T1, sGC α1/β1 heterodimer stably expressed in CHO-K1 cells (CHO-K1/sGC) (Homo sapiens, UniProt Q02108+Q02153).
T1 construct: expressed in transfected cells
T1 sequence (Q02108 1-690): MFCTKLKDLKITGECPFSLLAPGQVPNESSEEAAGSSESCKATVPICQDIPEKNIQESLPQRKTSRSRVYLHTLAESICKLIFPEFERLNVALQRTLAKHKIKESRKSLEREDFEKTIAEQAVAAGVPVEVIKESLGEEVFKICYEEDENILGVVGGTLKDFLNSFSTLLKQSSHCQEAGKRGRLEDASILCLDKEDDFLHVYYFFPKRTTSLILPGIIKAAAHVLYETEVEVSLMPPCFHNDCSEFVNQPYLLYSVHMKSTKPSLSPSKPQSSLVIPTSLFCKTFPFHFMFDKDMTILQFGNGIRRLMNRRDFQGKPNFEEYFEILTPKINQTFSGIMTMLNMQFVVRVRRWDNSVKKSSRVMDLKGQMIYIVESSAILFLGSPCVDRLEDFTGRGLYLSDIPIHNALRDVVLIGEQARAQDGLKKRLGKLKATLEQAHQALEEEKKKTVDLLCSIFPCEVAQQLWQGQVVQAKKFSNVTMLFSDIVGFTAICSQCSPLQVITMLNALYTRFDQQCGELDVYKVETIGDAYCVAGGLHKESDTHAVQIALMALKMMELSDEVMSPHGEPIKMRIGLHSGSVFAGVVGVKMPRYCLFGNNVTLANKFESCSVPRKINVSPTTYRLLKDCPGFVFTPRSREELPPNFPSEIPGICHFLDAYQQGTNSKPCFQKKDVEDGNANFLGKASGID
T1 sequence (Q02153 1-619): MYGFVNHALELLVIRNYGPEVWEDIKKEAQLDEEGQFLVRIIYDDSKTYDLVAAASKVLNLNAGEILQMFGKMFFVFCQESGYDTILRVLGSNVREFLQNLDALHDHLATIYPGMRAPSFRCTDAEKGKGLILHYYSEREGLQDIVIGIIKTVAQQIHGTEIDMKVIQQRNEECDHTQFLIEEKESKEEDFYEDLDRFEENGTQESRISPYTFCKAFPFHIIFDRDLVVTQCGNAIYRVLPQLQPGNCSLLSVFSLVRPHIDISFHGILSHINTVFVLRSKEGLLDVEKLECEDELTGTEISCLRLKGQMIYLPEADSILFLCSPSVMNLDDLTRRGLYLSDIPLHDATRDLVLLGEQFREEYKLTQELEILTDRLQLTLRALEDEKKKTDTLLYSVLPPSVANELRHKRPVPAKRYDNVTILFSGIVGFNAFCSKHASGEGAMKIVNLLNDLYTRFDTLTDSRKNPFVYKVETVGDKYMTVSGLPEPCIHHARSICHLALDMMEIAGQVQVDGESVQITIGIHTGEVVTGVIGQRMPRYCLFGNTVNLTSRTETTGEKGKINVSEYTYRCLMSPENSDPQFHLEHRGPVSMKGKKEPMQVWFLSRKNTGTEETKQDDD
Briefly: Cell-based sGC Functional Assay (CASA Assay). The note with it: for Emax: CHO-K1, activation as percentage of maximum cGMP production of Compound A (set to 100%), read-out: % Act.; for EC50: inflection point of cGMP generation in CHO-K1/sGC cells, 4P fit, 1 hr at 37° C., read-out: IP. The method, boiled down:
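CHO-K1 cells stably expressing human sGC α1/β1 were incubated with compound for 1 h at 37 °C in buffer with 0.5 mM IBMX and 2.5% DMSO, with or without 1 μM DETA-NO. Intracellular cGMP was read by HTRF and expressed as percentage of maximal activation by reference activator Compound A. Values came from a 4-parameter fit.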

Assay [2] deals with Spontaneously hypertensive rats (SHR). Briefly: Acute Efficacy in Spontaneously Hypertensive Rats (SHR). It counts as in vivo, rat. The following applies: single oral dose. The source says: Spontaneously hypertensive rats (SHR, male, Charles River) were implanted with DSI TA11PA-C40 telemetry device (Data Sciences, Inc., St. Paul, Minn.) under isoflurane or ketamine/metomidine anesthesia. The telemetry unit catheter was inserted into the descending aorta via the femoral artery and the telemetry device was implanted subcutaneously in the left flank area. Animals were allowed to recover from surgery for 14 days before the start of any studies. Blood pressure, heart rate, and activity signals from conscious, freely moving rats were recorded continuously for 30 seconds every 10 min. On the day prior to administration of compound, a single oral dose of vehicle (10% transcutol/20% Cremophor/70% water) was administered to all animals to establish baseline control data. The blood pressure lowering efficacy of compound (PO) or vehicle was evaluated following a single oral gavage. Data were collected as hourly averages, and changes in blood pressure were calculated by subtracting control baseline data on an hourly basis. Animals were maintained on normal diet with a 12 hour light-dark cycle.
Maximum peak decreases of systolic blood pressure (SBP) in SHR at a particular P.O. dose (mpk milligrams per kilogram) for the following representative compounds are provided in Table 9. Category A=SBP in SHRs <15 mmHg; Category B=SBP in SHRs 15-25 mmHg; Category C=SBP in SHRs >25 mmHg

SMILES strings stand for the structures.

Take `Cn1ncc2c(-c3nc(N)c4c(n3)NC(=O)C4(C)c3ccc(F)cn3)nc(CCC(F)(F)C(F)(F)F)nc21` (stereo not drawn) [Example 1, 4-Amino-5-(5-fluoropyridin-2-yl)-5-methyl-2-(1-methyl-6-(3,3,4,4,4-pentafluorobutyl)-1H-pyrazolo[3,4-d]pyrimidin-4-yl)-5H-pyrrolo[2,3-d]pyrimidin-6(7H)-one]: in assay [1], the Emax came out at 123% and the EC50 amounted to 55 nM. Also, the “Category: maximum peak decrease of systolic blood pressure (SBP) in SHR” value (shortened to “Category: maximum peak decrease”) in assay [2] (P.O. 0.3 mpk) is on record as “C (Category C=SBP in SHRs >25 mmHg)”.

Take `Cn1ncc2c(-c3nc(N)c4c(n3)NC(=O)C4(C)c3ccc(F)cn3)nc(CC3CC(F)(F)C3)nc21` (stereo not drawn) [Example 3, 4-Amino-2-(6-((3,3-difluorocyclobutyl)methyl)-1-methyl-1H-pyrazolo[3,4-d]pyrimidin-4-yl)-5-(5-fluoropyridin-2-yl)-5-methyl-5,7-dihydro-6H-pyrrolo[2,3-d]pyrimidin-6-one]: in assay [1], the Emax was determined as 117% and the EC50 was 104 nM. For the same compound, the “Category: maximum peak decrease” value in assay [2] (P.O. 0.3 mpk) is reported as “C (Category C=SBP in SHRs >25 mmHg)”.

Turning to `Cn1ncc2c(-c3nc(N)c4c(n3)NC(=O)C4(C)c3ccc(F)cn3)nc(CCCC(F)(F)F)nc21` (stereo not drawn) [Example 4, 4-Amino-5-(5-fluoropyridin-2-yl)-5-methyl-2-(1-methyl-6-(4,4,4-trifluorobutyl)-1H-pyrazolo[3,4-d]pyrimidin-4-yl)-5H-pyrrolo[2,3-d]pyrimidin-6(7H)-one], in assay [1], the Emax came out at 115% and the EC50 came out at 54 nM. Besides, in assay [2] (P.O. 0.3 mpk), the “Category: maximum peak decrease” value is recorded as “B (Category B=SBP in SHRs 15-25 mmHg)”.

`[2H]C([2H])([2H])n1ncc2c(-c3nc(N)c4c(n3)NC(=O)C4(C)c3noc(C)n3)nc(CCC(F)(F)C(F)(F)F)nc21` (stereo not drawn) [Example 19, 4-Amino-5-methyl-5-(5-methyl-1,2,4-oxadiazol-3-yl)-2-(1-(methyl-d3)-6-(3,3,4,4,4-pentafluorobutyl)-1H-pyrazolo[3,4-d]pyrimidin-4-yl)-5,7-dihydro-6H-pyrrolo[2,3-d]pyrimidin-6-one]: in assay [1], the Emax amounted to 157% and the EC50 was 225 nM. In addition, in assay [2] (P.O. 1 mpk), the “Category: maximum peak decrease” value is “C (Category C=SBP in SHRs >25 mmHg)”.

With `[2H]C([2H])([2H])n1ncc2c(-c3nc(N)c4c(n3)NC(=O)C4(c3nnnn3C)C3CC3)nc(CCC(F)(F)C(F)(F)F)nc21` (stereo not drawn) [Example 25, 4-Amino-5-cyclopropyl-5-(1-methyl-1H-tetrazol-5-yl)-2-(1-(methyl-d3)-6-(3,3,4,4,4-pentafluorobutyl)-1H-pyrazolo[3,4-d]pyrimidin-4-yl)-5,7-dihydro-6H-pyrrolo[2,3-d]pyrimidin-6-one], in assay [1], the Emax was 93% and the EC50 was determined as 991 nM. The “Category: maximum peak decrease” value in assay [2] (P.O. 3 mpk) was “C (Category C=SBP in SHRs >25 mmHg)”.

In the case of `[2H]C([2H])([2H])n1ncc2c(-c3nc(N)c4c(n3)NC(=O)C4(c3nnc(C4CC4)o3)C3CC3)nc(CCC(F)(F)C(F)(F)F)nc21` (stereo not drawn) [Example 38, 4-Amino-5-cyclopropyl-5-(5-cyclopropyl-1,3,4-oxadiazol-2-yl)-2-(1-(methyl-d3)-6-(3,3,4,4,4-pentafluorobutyl)-1H-pyrazolo[3,4-d]pyrimidin-4-yl)-5,7-dihydro-6H-pyrrolo[2,3-d]pyrimidin-6-one], in assay [1], the Emax was 165% and the EC50 was 265 nM. Further, in assay [2] (P.O. 1 mpk), the “Category: maximum peak decrease” value is on record as “C (Category C=SBP in SHRs >25 mmHg)”.

Take `Cn1ncc2c(-c3nc(N)c4c(n3)NC(=O)C4(c3nnc(C4CC4)o3)C3CC3)nc(CCC(F)(F)C(F)(F)F)nc21` (stereo not drawn) [Example 44, 4-Amino-5-cyclopropyl-5-(5-cyclopropyl-1,3,4-oxadiazol-2-yl)-2-(1-methyl-6-(3,3,4,4,4-pentafluorobutyl)-1H-pyrazolo[3,4-d]pyrimidin-4-yl)-5,7-dihydro-6H-pyrrolo[2,3-d]pyrimidin-6-one]: in assay [1], the Emax was 113% and the EC50 came to 225 nM. For the same compound, the “Category: maximum peak decrease” value in assay [2] (P.O. 1 mpk) is “B (Category B=SBP in SHRs 15-25 mmHg)”.

As to `[2H]C([2H])([2H])n1ncc2c(-c3nc(N)c4c(n3)NC(=O)C4(C)c3cn(CC4CC4)nn3)nc(CCC(F)(F)C(F)(F)F)nc21` (stereo not drawn) [Example 63, 4-Amino-5-(1-(cyclopropylmethyl)-1H-1,2,3-triazol-4-yl)-5-methyl-2-(1-(methyl-d3)-6-(3,3,4,4,4-pentafluorobutyl)-1H-pyrazolo[3,4-d]pyrimidin-4-yl)-5,7-dihydro-6H-pyrrolo[2,3-d]pyrimidin-6-one], in assay [1], the Emax was 93% and the EC50 was found to be 235 nM. Besides, the “Category: maximum peak decrease” value in assay [2] (P.O. 1 mpk) is listed as “A (Category A=SBP in SHRs <15 mmHg)”.

Regarding `[2H]C([2H])([2H])n1ncc2c(-c3nc(N)c4c(n3)NC(=O)C4(C)c3cn(C(C)C)nn3)nc(CCC(F)(F)C(F)(F)F)nc21` (stereo not drawn) [Example 67, 4-Amino-5-(1-isopropyl-1H-1,2,3-triazol-4-yl)-5-methyl-2-(1-(methyl-d3)-6-(3,3,4,4,4-pentafluorobutyl)-1H-pyrazolo[3,4-d]pyrimidin-4-yl)-5,7-dihydro-6H-pyrrolo[2,3-d]pyrimidin-6-one], the “% Act.” value in assay [1] (activation as percentage of maximum cGMP production of Compound A (set to 100%)) came out at 128%. The EC50 in assay [1] worked out at 120 nM. The “Category: maximum peak decrease” value in assay [2] (P.O. 0.3 mpk) is on record as “B (Category B=SBP in SHRs 15-25 mmHg)”.

With `CC(C)n1cc(C2(C)C(=O)Nc3nc(-c4nc(CCCC(F)(F)F)nc5c4cnn5C)nc(N)c32)nn1` (stereo not drawn) [Example 78, 4-Amino-5-(1-isopropyl-1H-1,2,3-triazol-4-yl)-5-methyl-2-(1-methyl-6-(4,4,4-trifluorobutyl)-1H-pyrazolo[3,4-d]pyrimidin-4-yl)-5,7-dihydro-6H-pyrrolo[2,3-d]pyrimidin-6-one], in assay [1], the Emax worked out at 103% and the EC50 was determined as 368 nM. For the same compound, the “Category: maximum peak decrease” value in assay [2] (P.O. 1 mpk) is given as “C (Category C=SBP in SHRs >25 mmHg)”.

As for `Cn1ccc2c(-c3nc(N)c4c(n3)NC(=O)C4(C)c3nnc(C4CC4)o3)nc(CCC(F)(F)C(F)(F)F)nc21` (stereo not drawn) [Example 86, 4-Amino-5-(5-cyclopropyl-1,3,4-oxadiazol-2-yl)-5,7′-dimethyl-2′-(3,3,4,4,4-pentafluorobutyl)-5,7-dihydro-6H,7′H-[2,4′-bipyrrolo[2,3-d]pyrimidin]-6-one], in assay [1], the Emax stood at 104% and the EC50 was 410 nM. For the same compound, the “Category: maximum peak decrease” value in assay [2] (P.O. 1 mpk) was “B (Category B=SBP in SHRs 15-25 mmHg)”.
